# Results reported in patent US10183030B2, “17α,21-diesters of cortexolone for use in the treatment of tumors” (COSMO TECHNOLOGIES LTD., priority 2014, dated 2019).
# Read-outs that look alike come from different tables or passages of the source.
# Experiments:
# [1] = tested on: Panc1 (AR+) pancreatic cancer cells; experiment: ATP-dependent proliferation/viability assay, Panc1; type: cell-based; settings: Homo sapiens
# Experimental: (§1) The experimental method consisted of: • 1. […] After 24 hours, 10 nM DHT (dihydrotestosterone) with or without anti-androgen compounds, or DMSO vehicle (negative control) was added to the cultures. • 3.
# (§2) Each compounds was titrated from 3 uM to 200 uM.
# [2] = tested on: MiaPaca2 (AR low) pancreatic cancer cells; experiment: ATP-dependent proliferation/viability assay, MiaPaca2; type: cell-based; settings: Homo sapiens
# Experimental: as §1, §2
# [3] = tested on: stimulated PBMC (actively dividing cells); experiment: IC50 on stimulated PBMC (intrinsic toxicity); type: cell-based; settings: Homo sapiens
# Experimental: (§4) The IC50 in PBMC were tested in 2 different activation status: • stimulated—actively dividing cells • resting—quiescent, non-dividing cells
# (§5) IC50 of the compounds was determined on fresh cells isolated from human blood (PBMC).
# MCF7 breast cancer cells = experiment: In vitro proliferation / cytotoxic assay, MCF7; type: cell-based; settings: Homo sapiens
# Experimental: After 72 hours incubation cell were harvested, lysed and viability determined using the cell titer glow assay for viability.
# HT29 colon cancer cells = experiment: In vitro proliferation, HT29 (cancer cell panel); type: cell-based; settings: Homo sapiens, HT-29, HT29
# Experimental: as §2
# [4] = tested on: LNCaP (AR+) prostate cancer cells; experiment: ATP-dependent proliferation/viability assay, LNCaP; type: cell-based; settings: Homo sapiens
# Experimental: (§3) The experiment was performed to test and to define the antitumor activity in vitro of cortexolone 17α-benzoate on LNCaP (AR^+) and PC3 (AR^−), representative of Prostatic cancer cell lines with Androgen Receptor (AR) positive or negative expression, respectively. The experimental method consisted of: • 1. […] After 24 hours, 10 nM DHT (dihydrotestosterone) with or without anti-androgen compounds, or DMSO vehicle (negative control) was added to the cultures. • 3.
# as §3, with “define” for “define the”, “17α-valerate-21-propionate (CB-03-10)” for “17α-benzoate”, “AR” for “Androgen Receptor (AR)”
# as §2
# [5] = tested on: PC3 (AR−) prostate cancer cells; experiment: ATP-dependent proliferation/viability assay, PC3; type: cell-based; settings: Homo sapiens, 72 h, 3 days
# Experimental: as §3
# as §3, with “define” for “define the”, “17α-valerate-21-propionate (CB-03-10)” for “17α-benzoate”, “AR” for “Androgen Receptor (AR)”
# as §2
# [6] = tested on: PC3 (AR−) prostate cancer cells; experiment: ATP-dependent proliferation/viability assay, PC3; type: cell-based; settings: Homo sapiens
# [7] = tested on: resting PBMC (quiescent, non-dividing cells); experiment: IC50 on resting PBMC (intrinsic toxicity); type: cell-based; settings: Homo sapiens
# Experimental: as §4, §5
# [8] = tested on: Caspase 8, 9 and 3/7 in MiaPaca2 cells; experiment: Caspase activity in MiaPaca2 cells; type: cell-based, human; settings: 8, 24, 48 hours
# Experimental: From previous studies was determined that CB-03-10 induces apoptosis using Annexin V staining in MiaPaca2 cells. To better analyze the phenomenon the enzymatic activity of Caspase 8 (initiator caspase for Extrinsic Pathway) and Caspase 9 (initiator caspase for Intrinsic Pathway) and of Caspases 3 and 7 (effector caspases) were measured.
# After 24 hours test compounds were added to cells, Gemcitabine (a known pancreatic cancer chemotherapeutic agent) and DMSO were used as positive and negative control, respectively. After 8, 24, & 48 hours incubation with test compounds, cells were lysed in buffer containing the caspase 3/7 or 8 or 9 substrate and a stable luciferase in proprietary buffers. The lysates were transferred to white opaque plates before measuring luminescence in a Tecan Safire instrument. Parallel plates treated identically, were used to determine viable cells. All caspase activities were corrected for the number of viable cells.
# [9] = In vivo pharmacokinetics in mouse plasma; settings: mouse, in vivo, 40 mg/kg
# Experimental: The pharmacokinetic of CB-03-10 was evaluated in plasma of mice after intravenous (IV), subcutaneous (SC) and oral administration (PO).
# Mice (3 per group) were administered with the following doses, blood was collected at the indicated times. Plasma samples were analyzed by HPLC-MS/MS.
# [10] = tested on: MiaPaca-2 xenograft tumor; experiment: MiaPaca2 human pancreatic tumor xenograft in nude mice, subcutaneous treatment; type: in vivo, mouse
# Experimental: The test was carried out comparing the anti-tumor activity of cortexolone 17α-benzoate at two different dosages (8.0 mg/kg, corresponding approximately at 230 μM, and 40 mg/kg, corresponding approximately at 1150 μM), versus the vehicle (i.e. 0.4% (v/v) tween 80 and 0.5% (w/v) carboxymethylcellulose in normal saline) and versus the comparator Cyproterone Acetate at two different dosages (7.4 mg/kg and 37 mg/kg).
# 1×10^6 MiaPaca-2 cells suspended in matrigel were subcutaneously injected into 6 week old athymic nude mice.
# The treatment with the tested compounds, with the vehicle and with the comparative compound, was initiated after the tumor volume has reached 50 mm^3 after transplantation. All compounds were injected 100 μL/mouse subcutaneously of low dose solution (approximately 230 μM) or 100 μL/mouse of high dose solution (approximately 1150 μM) of cortexolone 17α-benzoate, vehicle and cyproterone acetate, respectively. Compounds and controls were administered subcutaneously daily for 28 days.
# Tumors were measured every 4 days with a digital caliper.
# The results are plotted in FIG. 1 as average change in tumor volume relative to the start of treatment. Tumor volume was calculated according to the formula 0.5236(r1)^2(r2) where r1<r2.
# The test was carried out comparing the anti-tumor activity of cortexolone 17α-valerate-21-propionate (CB-03-10) at two different dosages (approximately 8.6 mg/kg and 43 mg/kg) versus the vehicle (i.e. 0.4% (v/v) tween 80 and 0.5% (w/v) carboxymethylcellulose in normal saline) and versus the comparator Cyproterone Acetate at two different dosages (7.4 mg/kg and 37 mg/kg).
# The treatment with the tested compound, with the vehicle and with the comparative compound was initiated after the tumor has reached a volume of 50 mm^3 after implantation, injecting subcutaneously 100 μL/mouse of low dose solution (approximately 230 μM) or 100 μL/mouse of high dose solution (approximately 1150 μM) of cortexolone 17α-valerate-21-propionate (CB-03-10), vehicle and cyproterone acetate, respectively. Compounds and controls were administered subcutaneously daily for 28 days.
# The results are plotted in FIG. 2 as average change in tumor volume relative to the start of treatment. Tumor volume was calculated according to the formula 0.5236(r1)^2(r2) where r1<r2.
# CPA a well-known anti-androgen was used as control. Briefly 1×10^6 MiaPaca2 cells suspended in matrigel were subcutaneously (SC) injected into 6 week old male athymic nude mice. Tumors were measured every 4 days with a digital caliper. Tumor volume was calculated according to the formula: 0.5236(r1) 2(r2) where r1<r2. Treatment with CB-03-10 and controls compounds was initiated after the tumor had reached 50 mm^3. Compounds diluted in DMSO/2-hydroxypropyl b-cyclodextrin (vehicle) were injected subcutaneously (SC) daily (100 μL/mouse) at the concentration of 40 mg/Kg daily for 28 consecutive days.
# [11] = PANC-1, 72 h, Panc1, Tables I and II, unit inferred, titrated from 3 uM to 200 uM, 3 days, read-out: IC50
# [12] = PANC-1, Panc1, Table IV, read-out: In vitro proliferation IC50 (micro Molar)
# [13] = MIA PaCa-2, 72 h, MiaPaca2, Tables I and II, unit inferred, titrated from 3 uM to 200 uM, 3 days, read-out: IC50
# [14] = MIA PaCa-2, MiaPaca2, Table IV, read-out: In vitro proliferation IC50 (micro Molar)
# [15] = PBMC STIMULATED, Table IV, read-out: In vitro proliferation IC50 (micro Molar)
# [16] = MCF7, Table IV, read-out: In vitro proliferation IC50 (micro Molar)
# [17] = Table IV, read-out: In vitro proliferation IC50 (micro Molar)
# [18] = 72 h, Tables I and II, unit inferred, compounds titrated from 3 uM to 200 uM, 3 days, read-out: IC50
# [19] = Tables I and II, unit inferred, titrated from 3 uM to 200 uM
# [20] = Table III, read-out: in vitro proliferation IC50 (μ/M)
SMILES,"IC50 [1, 11]","IC50 [1, 12]","IC50 [2, 13]","IC50 [2, 14]","IC50 [3, 15]",IC50 (MCF7 breast cancer cells; [16]),IC50 (HT29 colon cancer cells; [17]),"IC50 [4, 18]","IC50 [4, 17]","IC50 [5, 19]","IC50 [6, 17]",Caspase 3/7 induction [8],other results
"CCCC(=O)OC1(C(=O)CO)CCC2C3CCC4=CC(=O)CC[C@]4(C)C3=CC[C@@]21C (single isomer, unassigned) [CB-03-04]",340 µM,340 µM,160 µM,160 µM,360 µM,88 µM,51 µM,–,–,–,–,–,–
CCC(=O)O[C@]1(C(=O)CO)CC[C@H]2[C@@H]3CCC4=CC(=O)CC[C@]4(C)[C@H]3CC[C@@]21C [CB-03-01],490 µM,490 µM,110 µM,110 µM,0.1 µM,121 µM,–,33 µM,33 µM,190 µM,190 µM,–,–
"CCCCC(=O)O[C@]1(C(=O)CO)CC[C@H]2[C@@H]3CCC4=CC(=O)CC[C@]4(C)[C@H]3CC[C@@]21C [CB-03-05, cortexolone 17α-valerate]",74 µM,74 µM,59 µM,59 µM,130 µM,50 µM,30 µM,32 µM,32 µM,170 µM,170 µM,does not show a good profile for caspase activation,"IC50 [4, 20]: 32 µM; IC50 ([4]; general conclusion text, read-out: IC50 in LNCaP prostate cancer cells): 32 µM; IC50 ([1]; PANC-1, Panc1, Table III, read-out: in vitro proliferation IC50 (μ/M)): 74 µM; IC50 ([2]; MIA PaCa-2, MiaPaca2, Table III, read-out: in vitro proliferation IC50 (μ/M)): 59 µM; IC50 ([3]; PBMC STIMULATED, Table III, read-out: in vitro proliferation IC50 (μ/M)): 130 µM; IC50 ([7]; PBMC RESTING, Table III, read-out: in vitro proliferation IC50 (μ/M)): 120 µM; IC50 (MCF7 breast cancer cells; MCF7 (ER+PR+GR+/−), 72 hours, Table VI, unit inferred, read-out: IC50 on breast cancer cells): 50 µM; IC50 (MCF7 breast cancer cells; MCF7, Table III, read-out: in vitro proliferation IC50 (μ/M)): 50 µM; IC50 (HT29 colon cancer cells; Table III, read-out: in vitro proliferation IC50 (μ/M) (converted)): 30 µM; body exposure (metabolite after CB-03-10 dosing) ([9]; po): 47 h/ng/mL; body exposure (metabolite after CB-03-10 dosing) ([9]; sc): 189 h/ng/mL; IC50 [6, 20]: 170 µM"
"C[C@]12CCC(=O)C=C1CC[C@@H]1[C@@H]2CC[C@@]2(C)[C@H]1CC[C@]2(OC(=O)c1ccccc1)C(=O)CO [CB-03-06, cortexolone 17α-benzoate]",–,–,–,–,–,–,–,–,–,–,–,–,"pancreatic tumor size increase relative to the start of treatment ([10]; Examples 5 and 6, SC daily for 28 days, test compounds at high dose (approximately 1150 μM, 100 μL/mouse), Cyproterone Acetate treatment groups 7.4 and 37 mg/kg): less than 5 fold"
"CC(=O)O[C@]1(C(C)=O)CC[C@H]2[C@@H]3C=C(Cl)C4=CC(=O)[C@@H]5C[C@@H]5[C@]4(C)[C@H]3CC[C@@]21C [Cyproterone Acetate, Cyproterone acetate, reference compound]",46 µM,46 µM,39 µM,39 µM,62 µM,64 µM,–,22 µM,22 µM,90 µM,90 µM,–,"IC50 ([4]; 72 h, 10 nM DHT, 3 days, Examples 1-2, Experiment 1 (sigmoidal dose response fit), read-out: IC50): 29 µM; IC50 ([4]; 72 h, 10 nM DHT, 3 days, Examples 1-2, Experiment 2 (nonlinear regression least squares fit), read-out: IC50): 22 µM; IC50 ([5]; 10 nM DHT, Examples 1-2, Experiment 1): 98 µM; IC50 ([5]; 10 nM DHT, Examples 1-2, Experiment 2): 90 µM; IC50 ([1]; PANC-1, 72 h, Panc1, 10 nM DHT, 3 days, Examples 3-4, Experiment 1, sigmoidal dose-response curve fit, read-out: IC50): 54 µM; IC50 ([1]; PANC-1, 72 h, Panc1, 10 nM DHT, 3 days, Examples 3-4, Experiment 2, pooled experiments, least-squares fit, read-out: IC50): 46 µM; IC50 ([1]; PANC-1, Panc1, Example 7, Experiment 1, read-out: IC50): 52 µM; IC50 ([1]; PANC-1, Panc1, Example 7, Experiment 2, read-out: IC50): 46 µM; IC50 ([2]; MIA PaCa-2, 72 h, MiaPaca2, 10 nM DHT, 3 days, Examples 3-4, Experiment 1, sigmoidal dose-response curve fit, read-out: IC50): 46 µM; IC50 ([2]; MIA PaCa-2, 72 h, MiaPaca2, 10 nM DHT, 3 days, Examples 3-4, Experiment 2, pooled experiments, least-squares fit, read-out: IC50): 39 µM; IC50 ([2]; MIA PaCa-2, MiaPaca2, Example 7, Experiment 1, read-out: IC50): 39 µM; IC50 ([2]; MIA PaCa-2, MiaPaca2, Example 7, Experiment 2, read-out: IC50): 39 µM; IC50 ([3]; stimulated PBMC, Example 7, Experiment 1, read-out: IC50 (microM) on Stimulated PBMC): 63 µM; IC50 ([3]; stimulated PBMC, Example 7, Experiment 2, read-out: IC50 (microM) on Stimulated PBMC): 62 µM; IC50 ([7]; resting PBMC, Example 7, Experiment 1, read-out: IC50 (microM) on Resting PBMC): 18 µM; IC50 ([7]; resting PBMC, Example 7, Experiment 2, read-out: IC50 (microM) on Resting PBMC): 84 µM; pancreatic tumor size increase relative to the initial size, during the treatment period ([10]; Example 22, 40 mg/Kg SC daily for 28 consecutive days): 12 fold"
"Nc1ccn([C@@H]2O[C@H](CO)[C@@H](O)C2(F)F)c(=O)n1 [Gemcitabine, reference compound]",–,–,–,–,–,–,–,–,–,–,–,not seen until the 48 hours mark,–
